For data set [1], the system named is LPS-induced microglia activation. The data set is described as follows: Image-based assay of LPS-induced microglia activation (HTS and dose response). The class given is cell-based, rat. As to conditions: for inhibition at 10 µM: Rattus norvegicus, Microglia, read-out: LPS % inhibition.
Data set [2] relates to primary rat microglia. As to the kind of experiment: Cell toxicity (dead cells, size <150 μm2) in LPS assay. As to conditions: for IC50: read-out: Cell Toxicity IC50 (uM) [LPS assay].
The test system of data set [3] is fibrin-induced microglia activation. As to the kind of experiment: Image-based assay of fibrin-induced microglia activation (HTS and dose response). The format is cell-based, rat. As to conditions: for inhibition at 10 µM: Rattus norvegicus, Microglia, read-out: Fibrin % inhibition.
Data set [4] concerns primary rat microglia. The data set is described as follows: Cell toxicity (dead cells, size <150 μm2) in coated fibrin (cFib) assay.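 As to Fibrin % cell toxicity: share of dead cells sized under 150 µm2 at 10 µM in fibrin-stimulated microglia HTS.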 The settings on record: for IC50: read-out: Cell Toxicity IC50 (uM) [cFib assay].
The test system of data set [5] is fibrin- and LPS-induced microglia activation. As to the kind of experiment: cells. The class given is cell-based, rat. As to conditions: for Hit: HTS hit classification.
[6] abbreviates: primary microglia HTS, 10 μM, LPS-stimulated, cell size >800 μm^2 as marker of activation.
[7] abbreviates: primary microglia HTS, 10 μM, LPS assay, cell size <150 μm^2 as marker of toxicity.
Where [8] appears, read: primary microglia HTS, 10 μM, fibrin-stimulated, cell size >800 μm^2 as marker of activation.
Where [9] appears, read: primary microglia HTS, 10 μM, fibrin assay, cell size <150 μm^2 as marker of toxicity.
[10] abbreviates: HTS of 1907 compounds, quadrant by fibrin and LPS inhibition.
The mark [11] stands for this setting: primary HTS, 10 μM, LPS-stimulated primary microglia.
Setting [12] is: primary HTS, 10 μM, LPS assay, dead cells size <150 μm2.
Setting [13] is: primary HTS, 10 μM, fibrin-stimulated primary microglia.
Where [14] appears, read: primary HTS, 10 μM, fibrin assay, dead cells size <150 μm2.
Where [15] appears, read: LPS-induced microglia activation, dose response, read-out: LPS IC50 (uM) (Suppl. Table 7).
[16] abbreviates: Table 1, dose response 0.001-20 μM, triplicates, primary rat microglia, 48 h, read-out: LPS IC50.
Where [17] appears, read: dose response, LPS-induced microglia activation, read-out: LPS IC50.
Where [18] appears, read: primary microglia HTS, LPS stimulation, increased cell size (>800 μm^2) as marker of activation.
The mark [19] stands for this setting: primary microglia HTS, LPS stimulation, decreased size (<150 μm^2) as marker of toxicity.
The mark [20] stands for this setting: Table 1, dose response 0.001-20 μM, triplicates, primary rat microglia, 48 h, read-out: Fibrin IC50.
Where [21] appears, read: dose response, fibrin-induced microglia activation, read-out: Fibrin IC50.
Setting [22] is: fibrin-induced microglia activation, dose response, read-out: Fibrin IC50 (uM) (Suppl. Table 7).
[23] abbreviates: primary microglia HTS, fibrin stimulation, increased cell size (>800 μm^2) as marker of activation.
The mark [24] stands for this setting: primary microglia HTS, fibrin stimulation, decreased size (<150 μm^2) as marker of toxicity.
The mark [25] stands for this setting: hit classification in microglia HTS.
[26] abbreviates: quadrant by fibrin and LPS inhibition in HTS of 1907 compounds.

Data on 18 molecules can be found in patent US20210330611A1, “THERAPY FOR NEUROLOGICAL DISEASES/DISORDERS” (priority 2020, published 2021).

Where two headings read alike, the source gives them in different places. Bounds are passed on as bounds.

In general, inhibition refers to the drop in the measured response relative to a control, in per cent. Usually IC50 stands for the point on the concentration scale where inhibition reaches its midpoint.

In the case of `COC(=O)[C@@H]1[C@H]2C[C@H]3c4[nH]c5ccccc5c4CCN3C[C@@H]2CC[C@@H]1O` [Yohimbine], the LPS % inhibition in data set [1] (setting [6]) is listed as −17%. Besides, in the data set with primary rat microglia [2] (setting [7]), the “LPS % cell toxicity” value turned out to be 0%. The Fibrin % inhibition in data set [3] (setting [8]) is reported as 4%. Further, in the data set on primary rat microglia [4] (setting [9]), the “Fibrin % cell toxicity” value came out at 1%. Besides, the “Quadrant (FIG. 5b)” value in data set [5] (setting [10]) is on record as “Q4”.
Take `CCN(C(C)=O)c1cccc(-c2ccnc3c(C#N)cnn23)c1` [Zaleplon]: the results for the inhibition at 10 µM in data set [1] (setting [6]) and in data set [3] (setting [8]) were 13% and 16%, respectively. In the data set on primary rat microglia [2] (setting [7]), the “LPS % cell toxicity” value came out at 0%. For the same molecule, the “Fibrin % cell toxicity” value in the data set on primary rat microglia [4] (setting [9]) was found to be 1%. The “Quadrant (FIG. 5b)” value in data set [5] (setting [10]) is listed as “Q4”.
For `CCCOc1ccccc1-c1nc2nn[nH]c2c(=O)[nH]1` [Zaprinast], in that order: 13%, -34%, 0%, 1% and “Q4”.
Regarding `CC(c1cc2ccccc2s1)N(O)C(N)=O` (centres unmarked) [Zileuton], the inhibition at 10 µM in data set [1] (setting [6]) was 21%; in data set [3] (setting [8]) it was -12%. Moreover, in the data set with primary rat microglia [2] (setting [7]), the “LPS % cell toxicity” value was 0%. Also, the “Fibrin % cell toxicity” value in the data set with primary rat microglia [4] (setting [9]) stood at 0%. Moreover, the “Quadrant (FIG. 5b)” value in data set [5] (setting [10]) was “Q4”.
As for `CN(C)CCc1c[nH]c2ccc(C[C@H]3COC(=O)N3)cc12` [Zolmitriptan], the inhibition at 10 µM in data set [1] (setting [6]) turned out to be 18%; in data set [3] (setting [8]), 9%. Besides, in the data set on primary rat microglia [2] (setting [7]), the “LPS % cell toxicity” value turned out to be 0%. Besides, the “Fibrin % cell toxicity” value in the data set on primary rat microglia [4] (setting [9]) is 1%. Further, in data set [5] (setting [10]), the “Quadrant (FIG. 5b)” value is listed as “Q4”.
As for `Cc1cc(CC(=O)O)n(C)c1C(=O)c1ccc(Cl)cc1` [Zomepirac], the inhibition at 10 µM in data set [1] (setting [6]) is 10%; in data set [3] (setting [8]) it was -4%. In the data set on primary rat microglia [2] (setting [7]), the “LPS % cell toxicity” value is recorded as 0%. The “Fibrin % cell toxicity” value with primary rat microglia [4] (setting [9]) worked out at 1%. For the same molecule, the “Quadrant (FIG. 5b)” value in data set [5] (setting [10]) is given as “Q4”.
The matching figures for `NS(=O)(=O)Cc1noc2ccccc12` [Zonisamide]: -12%, -37%, 0%, 0% and “Q4”.
The matching figures for `CN1CCN(C(=O)OC2c3nccnc3C(=O)N2c2ccc(Cl)cn2)CC1` (centres unmarked) [Zopiclone]: 5%, 11%, 0%, 1% and “Q4”.
Regarding Candicidin, the LPS % inhibition in data set [1] (setting [11]) amounted to 31%. For the same molecule, the “LPS % cell toxicity” value with primary rat microglia [2] (setting [12]) turned out to be 0%. The Fibrin % inhibition in data set [3] (setting [13]) is listed as −41%. The “Fibrin % cell toxicity” value in the data set with primary rat microglia [4] (setting [14]) is 1%. In addition, in data set [5] (primary HTS, 10 μM), the “Quadrant (FIG. 5b)” value is “Q4”.
For Capreomycin Sulfate, the LPS % inhibition in data set [1] (setting [11]) stood at 3%. Moreover, the “LPS % cell toxicity” value in the data set on primary rat microglia [2] (setting [12]) is given as 0%. In addition, the Fibrin % inhibition in data set [3] (setting [13]) is −32%. In the data set with primary rat microglia [4] (setting [14]), the “Fibrin % cell toxicity” value worked out at 1%. In addition, the “Quadrant (FIG. 5b)” value in data set [5] (primary HTS, 10 μM) is reported as “Q4”.
For the molecule Chiniofon, the LPS % inhibition in data set [1] (setting [11]) is on record as −1%. In addition, the “LPS % cell toxicity” value in the data set with primary rat microglia [2] (setting [12]) stood at 1%. Further, in data set [3] (setting [13]), the Fibrin % inhibition is −52%. Also, the “Fibrin % cell toxicity” value in the data set on primary rat microglia [4] (setting [14]) is 1%. In data set [5] (primary HTS, 10 μM), the “Quadrant (FIG. 5b)” value was “Q4”.
Take Chlorophyllide Cu Complex Na Salt: the LPS % inhibition in data set [1] (setting [11]) came to 9%. Besides, the “LPS % cell toxicity” value with primary rat microglia [2] (setting [12]) was 0%. In addition, the Fibrin % inhibition in data set [3] (setting [13]) is reported as −36%. The “Fibrin % cell toxicity” value in the data set with primary rat microglia [4] (setting [14]) is given as 0%. The “Quadrant (FIG. 5b)” value in data set [5] (primary HTS, 10 μM) is on record as “Q4”.
Turning to “Colistimethate sodium [reference compound]”, the IC50 (in data set [1] (setting [15]); in data set [1] (setting [16]); in data set [1] (setting [17]); with primary rat microglia [2] (LPS assay); in data set [3] (setting [20]); in data set [3] (setting [21])) was more than 20 µM each time. Moreover, the IC50 (in data set [3] (setting [22]); with primary rat microglia [4] (cFib assay)) was more than 20 µM in each case. Also, in data set [1] (setting [18]), the LPS % inhibition is listed as 112%. Besides, the “LPS % cell toxicity” value in the data set with primary rat microglia [2] (setting [19]) came out at 4%. In addition, the Fibrin % inhibition in data set [3] (setting [23]) was 72%. The “Fibrin % cell toxicity” value in the data set on primary rat microglia [4] (setting [24]) is listed as 1%. The Hit entry in data set [5] is “HIT (Hits were defined as molecules that exhibited greater than 50% inhibition of either fibrin or LPS activation)”. The “Quadrant (FIG. 5b)” value is on record as “Q2” in data set [5] (setting [10]); “Q2” in data set [5] (Table 1, screen at 10 μM); “Q2” in data set [5] (setting [26]). Also, the “Cherry-picked Hit (Suppl. Table 7)” value in data set [5] (setting [25]) is given as “HIT (Hits were defined as molecules that exhibited greater than 50% inhibition of either fibrin or LPS activation)”.
As to Colistin Sulfate, in data set [1] (setting [18]), the LPS % inhibition turned out to be 58%. Besides, in the data set on primary rat microglia [2] (setting [19]), the “LPS % cell toxicity” value is recorded as 1%. The Fibrin % inhibition in data set [3] (setting [23]) is on record as 19%. In addition, the “Fibrin % cell toxicity” value with primary rat microglia [4] (setting [24]) is listed as 1%. Moreover, the “Quadrant (FIG. 5b)” value in data set [5] (setting [26]) is recorded as “Q1”.
For the molecule Gentamicin sulfate [reference compound], the IC50 in data set [1] (setting [15]) is more than 20 µM; in data set [1] (setting [16]) it was more than 20 µM; in data set [1] (Table 3, read-out: LPS IC50 (uM) (Suppl. Table 7)), more than 20 µM; in data set [1] (setting [17]) it was more than 20 µM; with primary rat microglia [2] (LPS assay), more than 20 µM; with primary rat microglia [2] (Table 3) it was more than 20 µM. Also, the IC50 is 4 µM in data set [3] (setting [20]); 4 µM in data set [3] (Table 3, read-out: Fibrin IC50 (uM) (Suppl. Table 7)); 4 µM in data set [3] (setting [21]); 4 µM in data set [3] (setting [22]); more than 20 µM in the data set with primary rat microglia [4] (Table 3); more than 20 µM in the data set on primary rat microglia [4] (cFib assay). For the same molecule, in data set [1] (setting [18]), the LPS % inhibition is 101%. Besides, the “LPS % cell toxicity” value in the data set with primary rat microglia [2] (setting [19]) was 4%. Also, the “Fibrin Selectivity” value in data set [3] is 5. Further, in data set [3], the “Fibrin Selectivity (LOG10)” value is listed as 0.71. Further, the Fibrin % inhibition in data set [3] (setting [23]) worked out at 105%. Besides, in the data set with primary rat microglia [4] (setting [24]), the “Fibrin % cell toxicity” value amounted to 1%. For the same molecule, in data set [5], the Hit result was “HIT (Hits were defined as molecules that exhibited greater than 50% inhibition of either fibrin or LPS activation)”. For the same molecule, the “Quadrant (FIG. 5b)” value was “Q2” in data set [5] (setting [10]); “Q2” in data set [5] (Table 1, screen at 10 μM); “Q2” in data set [5] (Table 3, screen at 10 μM); “Q2” in data set [5] (setting [26]). The “Cherry-picked Hit (Suppl. Table 7)” value in data set [5] (Table 3) and in data set [5] (setting [25]) was “HIT (Hits were defined as molecules that exhibited greater than 50% inhibition of either fibrin or LPS activation)” in each case.
Consider Gramicidin, for which the LPS % inhibition in data set [1] (setting [18]) was 118%. In the data set with primary rat microglia [2] (setting [19]), the “LPS % cell toxicity” value was 64%. For the same molecule, in data set [3] (setting [23]), the Fibrin % inhibition stood at 114%. The “Fibrin % cell toxicity” value in the data set with primary rat microglia [4] (setting [24]) turned out to be 43%. The “Quadrant (FIG. 5b)” value in data set [5] (setting [26]) is “Q2”.
For the molecule Mepartricin, the LPS % inhibition in data set [1] (setting [18]) was −1%. In the data set on primary rat microglia [2] (setting [19]), the “LPS % cell toxicity” value was determined as 0%. Besides, in data set [3] (setting [23]), the Fibrin % inhibition is reported as 6%. Besides, the “Fibrin % cell toxicity” value with primary rat microglia [4] (setting [24]) was 1%. In data set [5] (setting [26]), the “Quadrant (FIG. 5b)” value was “Q4”.
As for Merbromin, in data set [1] (setting [18]), the LPS % inhibition is on record as 36%. The “LPS % cell toxicity” value with primary rat microglia [2] (setting [19]) is on record as 0%. The Fibrin % inhibition in data set [3] (setting [23]) is −6%. Besides, in the data set with primary rat microglia [4] (setting [24]), the “Fibrin % cell toxicity” value was determined as 0%. For the same molecule, the “Quadrant (FIG. 5b)” value in data set [5] (setting [26]) is “Q4”.
